According to patent US12036312B2, “Non-aqueous topical compositions comprising a halogenated salicylanilide” (priority 2016, dated 2024):
≈ marks a conversion by molar mass, not a printed value. Where two headings read alike, the source gives them in different places.

Test system: S. aureus
Assay: Minimum inhibitory concentration (MIC) assay, Example 1, S. aureus strains
Assay type: cell-based
Conditions: Staphylococcus aureus
Text: The methicillin-resistant S. aureus (MRSA) 01 strain was used as the primary test microorganism as a representative bacteria commonly found in skin infections. This strain is a community-acquired MRSA clinical isolate of USA 300 type, from a skin abscess.
Twenty-one other MRSA and methicillin-sensitive S. aureus strains, and 4 Streptococcus pyogenes strains, were also included in the study (Table 2). These covered fusidic acid- and mupirocin-resistant strains, these two types of resistance being of clinical relevance.
Strains were conserved in Luria Bertani (LB) Broth (S. aureus) or Brain Heart Infusion (BHI) (S. pyogenes) supplemented with glycerol 15% (v/v) at −80° C., and reactivated by isolation on LB (S. aureus) or BHI (S. pyogenes) agar plates. Strains were cultivated in Mueller Hinton (MH) Broth-cation adjusted (S. aureus) supplemented with lysed horse blood 2.5% (v/v) (S. pyogenes). All strains were cultivated at 37° C., aerobically for S. aureus strains.
Bacterial cultures were stopped in their exponential growth phase and plates were inoculated with the approximate concentration of 10^3 cells per well. Plates were incubated at 37° C. for 18 hours (S. aureus) or 24 hours (S. pyogenes). Optical density at a wavelength of 600 nm was measured at the end of the incubation time. […] Experiments were performed at least as triplicate biological replicates with all strains.

## O=C(Nc1ccc([N+](=O)[O-])cc1Cl)c1cc(Cl)ccc1O [Niclosamide, niclosamide]
MRSA, * tested against one strain: MRSA 01, read-out: Mic100 S. aureus
  MIC: ≤ 0.4 µg/mL
MRSA, strain MRSA 01, read-out: MIC
  MIC: 0.4 µg/mL (≈ 1.22 µM)
MRSA, strain MRSA 02, read-out: MIC
  MIC: 0.2 µg/mL (≈ 0.611 µM)
MRSA, strain MRSA 03*, read-out: MIC
  MIC: 0.4 µg/mL (≈ 1.22 µM)
MRSA, strain MRSA 04, read-out: MIC
  MIC: 0.4 µg/mL (≈ 1.22 µM)
MRSA, strain MRSA 05, read-out: MIC
  MIC: 0.2 µg/mL (≈ 0.611 µM)
MRSA, strain MRSA 06, read-out: MIC
  MIC: 0.4 µg/mL (≈ 1.22 µM)
MRSA, strain MRSA 07, read-out: MIC
  MIC: 0.2 µg/mL (≈ 0.611 µM)
MRSA, strain MRSA 08*, read-out: MIC
  MIC: 0.4 µg/mL (≈ 1.22 µM)
MRSA, strain MRSA 09, read-out: MIC
  MIC: 0.2 µg/mL (≈ 0.611 µM)
MRSA, strain MRSA 10, read-out: MIC
  MIC: 0.4 µg/mL (≈ 1.22 µM)
MRSA, strain MRSA 11, read-out: MIC
  MIC: 0.1 µg/mL (≈ 0.306 µM)
MRSA, strain MRSA 12*, read-out: MIC
  MIC: 0.4 µg/mL (≈ 1.22 µM)
MRSA, strain MRSA 13*, read-out: MIC
  MIC: 0.4 µg/mL (≈ 1.22 µM)
MRSA, strain MRSA 14*, read-out: MIC
  MIC: 0.4 µg/mL (≈ 1.22 µM)
MRSA, strain MRSA 15*, read-out: MIC
  MIC: 0.2 µg/mL (≈ 0.611 µM)
MRSA, strain MRSA 16*, read-out: MIC
  MIC: 0.2 µg/mL (≈ 0.611 µM)
MRSA, strain MRSA 17*, read-out: MIC
  MIC: 0.2 µg/mL (≈ 0.611 µM)
MSSA, strain MSSA 01*, read-out: MIC
  MIC: 0.4 µg/mL (≈ 1.22 µM)
MSSA, strain MSSA 02*, read-out: MIC
  MIC: 0.4 µg/mL (≈ 1.22 µM)
NEWMAN, strain Newman, read-out: MIC
  MIC: 0.2 µg/mL (≈ 0.611 µM)
Strain EEFIC 01*, read-out: MIC
  MIC: 0.4 µg/mL (≈ 1.22 µM)
Strain EEFIC 02*, read-out: MIC
  MIC: 0.2 µg/mL (≈ 0.611 µM)
